Experimental data reported in ChEMBL document CHEMBL1681651, “A broad spectrum anticancer nucleoside with selective toxicity against human colon cells in vitro” (2011).

Experiments:
Format in all cases: functional
[1] = tested on: SN12C; test: Growth inhibition of human SN12C cells assessed as cell growth at 1 uM after 48 hrs by SRB assay; conditions: read-out: Activity
[2] = tested on: NCI-H322M; test: Growth inhibition of human NCI-H322M cells assessed as cell growth at 10 uM after 48 hrs by SRB assay; conditions: read-out: Activity
[3] = tested on: NCI-H226; test: Growth inhibition of human NCI-H226 cells after 48 hrs by […] growth inhibition assay; conditions: NCI-H226, 48 h
[4] = tested on: NCI-H23; test: Growth inhibition of human NCI-H23 cells after 48 hrs by […] growth inhibition assay; conditions: NCI-H23, 48 h
[5] = tested on: NCI-H522; test: Growth inhibition of human NCI-H522 cells after 48 hrs by […] growth inhibition assay; conditions: NCI-H522, 48 h
[6] = tested on: U-251; test: Growth inhibition of human U251 cells after 48 hrs by […] growth inhibition assay; conditions: U-251, 48 h
[7] = tested on: OVCAR-4; test: Growth inhibition of human OVCAR4 cells after 48 hrs by […] growth inhibition assay; conditions: OVCAR-4, 48 h
[8] = tested on: OVCAR-5; test: Growth inhibition of human OVCAR5 cells after 48 hrs by […] growth inhibition assay; conditions: OVCAR-5, 48 h
[9] = tested on: 786-0; test: Growth inhibition of human 786-0 cells after 48 hrs by […] growth inhibition assay; conditions: 786-0, 48 h
[10] = tested on: ACHN; test: Growth inhibition of human ACHN cells after 48 hrs by […] growth inhibition assay
[11] = tested on: RXF 393; test: Growth inhibition of human RXF393 cells after 48 hrs by […] growth inhibition assay; conditions: RXF 393, 48 h
[12] = tested on: CCRF-CEM; test: Growth inhibition of human CCRF-CEM cells assessed as cell growth at 0.1 uM after 48 hrs by SRB assay; conditions: read-out: Activity
[13] = tested on: NCI-H322M; test: Growth inhibition of human NCI-H322M cells assessed as cell growth at 0.1 uM after 48 hrs by SRB assay; conditions: read-out: Activity
[14] = tested on: A498; test: Growth inhibition of human A498 cells assessed as cell growth at 0.1 uM after 48 hrs by SRB assay; conditions: A498, 48 h, read-out: Activity
[15] = tested on: SNB-75; test: Growth inhibition of human SNB75 cells assessed as cell growth at 10 uM after 48 hrs by SRB assay; conditions: SNB-75, 48 h, read-out: Activity
[16] = tested on: M14; test: Growth inhibition of human M14 cells assessed as cell growth at 10 uM after 48 hrs by SRB assay; conditions: M14, 48 h, read-out: Activity
[17] = tested on: SN12C; test: Growth inhibition of human SN12C cells assessed as cell growth at 10 uM after 48 hrs by SRB assay; conditions: read-out: Activity
[18] = tested on: HOP-62; test: Growth inhibition of human HOP62 cells assessed as cell growth at 100 uM after 48 hrs by SRB assay; conditions: HOP-62, 48 h, read-out: Activity
[19] = tested on: NCI-H460; test: Growth inhibition of human NCI-H460 cells assessed as cell growth at 100 uM after 48 hrs by SRB assay; conditions: NCI-H460, 48 h, read-out: Activity
[20] = tested on: SF-268; test: Growth inhibition of human SF268 cells assessed as cell growth at 100 uM after 48 hrs by SRB assay; conditions: SF-268, 48 h, read-out: Activity
[21] = tested on: A498; test: Growth inhibition of human A498 cells assessed as cell growth at 100 uM after 48 hrs by SRB assay; conditions: A498, 48 h, read-out: Activity
[22] = tested on: MCF7; test: Growth inhibition of human MCF7 cells assessed as cell growth at 100 uM after 48 hrs by SRB assay; conditions: MCF7, 48 h, read-out: Activity
[23] = tested on: NCI-H522; test: Growth inhibition of human NCI-H522 cells assessed as cell growth at 1 mM after 48 hrs by SRB assay; conditions: NCI-H522, 48 h, read-out: Activity
[24] = tested on: HCT-116; test: Growth inhibition of human HCT116 cells assessed as cell growth at 1 mM after 48 hrs by SRB assay; conditions: HCT-116, 48 h, read-out: Activity
[25] = tested on: ACHN; test: Growth inhibition of human ACHN cells assessed as cell growth at 1 mM after 48 hrs by SRB assay; conditions: read-out: Activity
[26] = tested on: SN12C; test: Growth inhibition of human SN12C cells assessed as cell growth at 1 mM after 48 hrs by SRB assay; conditions: read-out: Activity
[27] = tested on: DU-145; test: Growth inhibition of human DU145 cells assessed as cell growth at 1 mM after 48 hrs by SRB assay; conditions: DU-145, 48 h, read-out: Activity
[28] = tested on: T47D; test: Growth inhibition of human T47D cells assessed as cell growth at 1 mM after 48 hrs by SRB assay; conditions: read-out: Activity
[29] = tested on: EKVX; test: Growth inhibition of human EKVX cells assessed as cell growth at 1 uM after 48 hrs by SRB assay; conditions: read-out: Activity
[30] = tested on: HOP-92; test: Growth inhibition of human HOP92 cells assessed as cell growth at 1 uM after 48 hrs by SRB assay; conditions: HOP-92, 48 h, read-out: Activity
[31] = tested on: SK-MEL-5; test: Growth inhibition of human SK-MEL-5 cells assessed as cell growth at 1 uM after 48 hrs by SRB assay; conditions: SK-MEL-5, 48 h, read-out: Activity
[32] = read-out: LC50 (the source's name)
[33] = read-out: pLC50 (the source's name) (converted)

CNC(=O)NC[C@H]1O[C@@H](n2cnc3c(NC(=O)Nc4ccccc4)ncnc32)[C@H](O[Si](C)(C)C(C)(C)C)[C@@H]1O[Si](C)(C)C(C)(C)C
growth at 1 µM [1]: 100%
growth at 10 µM [2]: 105%
GI50 ([3]; read-out: GI50): 3.1 µM
CC50 [3, 32]: > 100 µM
TGI ([3]; read-out: TGI): 8.63 µM
GI50 ([3]; read-out: pGI50 (converted)): 3.09 µM
CC50 [3, 33]: > 100 µM
TGI ([3]; read-out: pTGI (converted)): 8.71 µM
GI50 ([4]; read-out: GI50): 3.17 µM
CC50 [4, 32]: 86 µM
TGI ([4]; read-out: TGI): 9.07 µM
GI50 ([4]; read-out: pGI50 (converted)): 3.16 µM
CC50 [4, 33]: 85.1 µM
TGI ([4]; read-out: pTGI (converted)): 9.12 µM
GI50 ([5]; read-out: GI50): 2.39 µM
CC50 [5, 32]: > 100 µM
TGI ([5]; read-out: TGI): 7.14 µM
GI50 ([5]; read-out: pGI50 (converted)): 2.4 µM
CC50 [5, 33]: > 100 µM
TGI ([5]; read-out: pTGI (converted)): 7.08 µM
GI50 ([6]; read-out: GI50): 2.96 µM
CC50 [6, 32]: > 100 µM
TGI ([6]; read-out: TGI): 10.8 µM
GI50 ([6]; read-out: pGI50 (converted)): 2.95 µM
CC50 [6, 33]: > 100 µM
TGI ([6]; read-out: pTGI (converted)): 10.7 µM
GI50 ([7]; read-out: GI50): 3.44 µM
CC50 [7, 32]: > 100 µM
TGI ([7]; read-out: TGI): 43.9 µM
GI50 ([7]; read-out: pGI50 (converted)): 3.47 µM
CC50 [7, 33]: > 100 µM
TGI ([7]; read-out: pTGI): 43.7 µM
GI50 ([8]; read-out: GI50): 5.24 µM
CC50 [8, 32]: > 100 µM
TGI ([8]; read-out: TGI): 25.2 µM
GI50 ([8]; read-out: pGI50 (converted)): 5.25 µM
CC50 [8, 33]: > 100 µM
TGI ([8]; read-out: pTGI (converted)): 25.1 µM
GI50 ([9]; read-out: GI50): 2.04 µM
CC50 [9, 32]: 6.75 µM
TGI ([9]; read-out: TGI): 3.71 µM
GI50 ([9]; read-out: pGI50 (converted)): 2.04 µM
CC50 [9, 33]: 6.76 µM
TGI ([9]; read-out: pTGI (converted)): 3.72 µM
GI50 ([10]; read-out: GI50): 3.83 µM
CC50 [10, 32]: > 100 µM
TGI ([10]; read-out: TGI): > 100 µM
GI50 ([10]; read-out: pGI50 (converted)): 3.8 µM
CC50 [10, 33]: > 100 µM
TGI ([10]; read-out: pTGI): > 100 µM
GI50 ([11]; read-out: GI50): 2.14 µM
CC50 [11, 32]: 7.5 µM
TGI ([11]; read-out: TGI): 4.01 µM
GI50 ([11]; read-out: pGI50 (converted)): 2.14 µM
CC50 [11, 33]: 7.41 µM
TGI ([11]; read-out: pTGI (converted)): 3.98 µM
growth at 0.1 µM [12]: 104%
growth at 0.1 µM [13]: 102%
growth at 0.1 µM [14]: 92%
growth at 10 µM [15]: 73%
growth at 10 µM [16]: 105%
growth at 10 µM [17]: 98%
growth at 100 µM [18]: 26%
growth at 100 µM [19]: -74%
growth at 100 µM [20]: 8%
growth at 100 µM [21]: -39%
growth at 100 µM [22]: 6%
growth at 1000 µM [23]: -49%
growth at 1000 µM [24]: -100%
growth at 1000 µM [25]: 2%
growth at 1000 µM [26]: -90%
growth at 1000 µM [27]: -89%
growth at 1000 µM [28]: -32%
growth at 1 µM [29]: 111%
growth at 1 µM [30]: 80%
growth at 1 µM [31]: 98%
